# Where two headings read alike, the source gives them in different places.
# Legend:
# [1] = molecular target: T1, Human recombinant PDE2A (hPDE2A) (Homo sapiens, UniProt O00408); test: In vitro assay PDE2A (SPA, 3H-cGMP hydrolysis); type: biochemical; conditions: for Emax: read-out: hPDE2A Emax
# T1 construct: His tag (inferred from metal chelate purification); made in house; host or cells: Sf9 insect cells (baculovirus)
# [2] = molecular target: T2, Human recombinant PDE10A (hPDE10A) (Homo sapiens, UniProt Q9Y233); test: In vitro assay PDE10A, human clone (SPA, 3H-cAMP hydrolysis); type: biochemical; conditions: for Emax: read-out: hPDE10A2 or rPDE10A2 Emax
# T2 construct: His tag (inferred from metal chelate purification); made in house; host or cells: Sf9 insect cells (baculovirus)
# Procedure, shortened: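 Hydrolysis of 3H-cAMP (60 nM cAMP, 0.008 μCi tracer) proceeded for 60 min at room temperature, with the product detected by SPA bead scintillation counting. The enzyme was hPDE10A from baculovirus-infected Sf9 cells in Tris pH 7.8 buffer with MgCl2 and EGTA, and compounds were at 1% DMSO final. Blanks lacked enzyme.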
# [3] = molecular target: T3, Human recombinant PDE3A (hPDE3A) (Homo sapiens, UniProt Q14432); test: In vitro assay PDE3A (SPA, 3H-cAMP hydrolysis); type: biochemical; conditions: for IC50: hPDE3B pIC50; for Emax: read-out: hPDE3B Emax, read-out: Emax;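 for Emax: the method names PDE3A and the table heading PDE3B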
# T3 construct: purchased Scottish Biomedical; host or cells: Sf9 insect cells
# Procedure, shortened: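 Radiometric SPA measuring [3H]-cAMP hydrolysis (0.4 μM cAMP, 2.4 μCi/ml) over 60 min at room temperature, in Tris pH 7.8 buffer with MgCl2 and EGTA, 1% DMSO. Enzyme: recombinant human brain PDE3A expressed in Sf9 cells, used as partially purified lysate. Counts compared with enzyme-free blanks and vehicle controls.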
# [4] = molecular target: T4, PDE2A (Rattus norvegicus, UniProt Q01062); test: PDE2 occupancy by test compounds, ex-vivo autoradiography with [3H]B-17a; type: in vivo, Male Wistar rats; conditions: for receptor occupancy at 10 mg/kg: route PO (oral), percentage receptor occupancy, ex-vivo autoradiography, striatum
# T4 construct: Twenty μm-thick striatal sections were cut; from tissue; host or cells: rat brain, striatal sections
# T4 sequence (Q01062 1-928): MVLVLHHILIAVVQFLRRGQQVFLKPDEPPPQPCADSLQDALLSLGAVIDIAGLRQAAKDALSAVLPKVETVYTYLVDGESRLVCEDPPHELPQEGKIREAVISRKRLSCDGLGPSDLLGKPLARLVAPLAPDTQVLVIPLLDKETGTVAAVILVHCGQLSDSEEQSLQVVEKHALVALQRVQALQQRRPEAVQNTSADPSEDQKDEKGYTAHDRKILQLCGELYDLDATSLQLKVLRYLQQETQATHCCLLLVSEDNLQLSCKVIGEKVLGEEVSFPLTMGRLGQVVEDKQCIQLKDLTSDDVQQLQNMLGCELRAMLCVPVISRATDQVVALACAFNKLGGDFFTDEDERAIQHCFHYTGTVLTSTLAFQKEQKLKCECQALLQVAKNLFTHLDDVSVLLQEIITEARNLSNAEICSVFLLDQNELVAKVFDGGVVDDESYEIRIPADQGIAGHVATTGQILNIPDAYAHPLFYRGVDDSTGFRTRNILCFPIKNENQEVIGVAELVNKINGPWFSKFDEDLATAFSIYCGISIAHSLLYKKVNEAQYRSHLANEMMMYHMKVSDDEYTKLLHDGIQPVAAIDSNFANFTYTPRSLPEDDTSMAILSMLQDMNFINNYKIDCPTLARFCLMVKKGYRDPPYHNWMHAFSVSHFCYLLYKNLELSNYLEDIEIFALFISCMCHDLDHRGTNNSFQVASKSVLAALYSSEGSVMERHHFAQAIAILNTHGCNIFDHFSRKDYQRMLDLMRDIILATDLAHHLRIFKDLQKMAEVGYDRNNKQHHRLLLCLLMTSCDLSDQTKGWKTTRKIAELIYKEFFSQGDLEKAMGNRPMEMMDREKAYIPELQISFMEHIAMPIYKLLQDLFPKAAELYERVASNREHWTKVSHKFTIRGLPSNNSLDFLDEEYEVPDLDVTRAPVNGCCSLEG
# [5] = read-out: hPDE2A pIC50 (converted)
# [6] = hPDE10A2 or rPDE10A2 pIC50, human clone by default (no (r) mark)
# [7] = human clone by default (no (r) mark)
# [8] = human clone by default (no (r) mark), read-out: hPDE10A2 or rPDE10A2 pIC50 (converted)
# T3 sequence (Q14432 whole entry): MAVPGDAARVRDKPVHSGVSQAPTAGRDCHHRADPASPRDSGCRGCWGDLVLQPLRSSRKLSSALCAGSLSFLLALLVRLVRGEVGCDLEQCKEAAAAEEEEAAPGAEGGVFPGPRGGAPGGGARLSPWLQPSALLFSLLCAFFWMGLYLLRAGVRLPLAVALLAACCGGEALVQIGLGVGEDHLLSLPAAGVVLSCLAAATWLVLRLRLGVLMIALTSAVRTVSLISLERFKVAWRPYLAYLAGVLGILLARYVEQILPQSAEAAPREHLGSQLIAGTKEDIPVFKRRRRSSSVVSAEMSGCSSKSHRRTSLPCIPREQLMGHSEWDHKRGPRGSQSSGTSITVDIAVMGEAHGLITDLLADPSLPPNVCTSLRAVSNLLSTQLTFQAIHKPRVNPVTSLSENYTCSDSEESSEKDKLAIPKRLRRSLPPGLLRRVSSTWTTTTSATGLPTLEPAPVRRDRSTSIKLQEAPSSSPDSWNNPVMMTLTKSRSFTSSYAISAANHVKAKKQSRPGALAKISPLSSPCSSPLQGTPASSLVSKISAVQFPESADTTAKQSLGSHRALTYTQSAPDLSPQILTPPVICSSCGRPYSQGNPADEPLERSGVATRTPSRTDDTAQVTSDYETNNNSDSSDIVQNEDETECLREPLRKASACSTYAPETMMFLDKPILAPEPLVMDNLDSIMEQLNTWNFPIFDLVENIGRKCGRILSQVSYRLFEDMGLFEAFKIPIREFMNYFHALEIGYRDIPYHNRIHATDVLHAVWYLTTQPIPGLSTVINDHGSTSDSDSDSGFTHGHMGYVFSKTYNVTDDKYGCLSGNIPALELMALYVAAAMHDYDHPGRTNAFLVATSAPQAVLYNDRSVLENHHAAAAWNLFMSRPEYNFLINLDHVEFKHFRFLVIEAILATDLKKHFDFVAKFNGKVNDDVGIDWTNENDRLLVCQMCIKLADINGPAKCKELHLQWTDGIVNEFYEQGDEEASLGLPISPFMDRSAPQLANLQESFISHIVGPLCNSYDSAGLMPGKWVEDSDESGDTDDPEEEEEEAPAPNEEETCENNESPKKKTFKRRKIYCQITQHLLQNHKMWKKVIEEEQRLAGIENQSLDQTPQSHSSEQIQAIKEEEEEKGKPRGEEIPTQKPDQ
# T1 sequence (O00408 whole entry): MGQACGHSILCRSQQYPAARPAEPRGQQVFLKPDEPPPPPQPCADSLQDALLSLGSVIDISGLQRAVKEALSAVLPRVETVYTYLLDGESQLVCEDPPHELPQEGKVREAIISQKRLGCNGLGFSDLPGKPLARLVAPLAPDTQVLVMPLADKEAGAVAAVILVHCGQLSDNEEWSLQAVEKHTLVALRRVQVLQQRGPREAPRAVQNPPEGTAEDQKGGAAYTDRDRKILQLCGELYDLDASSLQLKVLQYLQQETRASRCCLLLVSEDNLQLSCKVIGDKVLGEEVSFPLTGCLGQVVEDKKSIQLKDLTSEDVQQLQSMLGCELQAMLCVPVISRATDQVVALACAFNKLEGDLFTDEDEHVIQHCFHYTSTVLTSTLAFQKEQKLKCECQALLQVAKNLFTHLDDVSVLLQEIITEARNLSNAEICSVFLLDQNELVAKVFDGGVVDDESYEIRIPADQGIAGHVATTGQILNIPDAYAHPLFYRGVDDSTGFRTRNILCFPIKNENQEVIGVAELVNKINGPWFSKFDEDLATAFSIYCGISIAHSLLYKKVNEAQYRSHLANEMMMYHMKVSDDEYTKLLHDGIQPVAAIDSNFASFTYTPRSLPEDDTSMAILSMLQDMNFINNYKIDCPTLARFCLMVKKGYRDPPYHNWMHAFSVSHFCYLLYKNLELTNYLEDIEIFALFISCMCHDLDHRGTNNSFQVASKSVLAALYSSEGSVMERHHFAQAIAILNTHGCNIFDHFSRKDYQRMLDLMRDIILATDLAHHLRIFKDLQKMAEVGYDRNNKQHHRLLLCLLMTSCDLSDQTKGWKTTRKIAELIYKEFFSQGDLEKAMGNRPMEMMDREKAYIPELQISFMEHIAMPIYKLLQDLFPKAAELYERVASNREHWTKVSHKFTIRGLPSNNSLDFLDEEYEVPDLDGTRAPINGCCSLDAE
# T2 sequence (Q9Y233 267-1055): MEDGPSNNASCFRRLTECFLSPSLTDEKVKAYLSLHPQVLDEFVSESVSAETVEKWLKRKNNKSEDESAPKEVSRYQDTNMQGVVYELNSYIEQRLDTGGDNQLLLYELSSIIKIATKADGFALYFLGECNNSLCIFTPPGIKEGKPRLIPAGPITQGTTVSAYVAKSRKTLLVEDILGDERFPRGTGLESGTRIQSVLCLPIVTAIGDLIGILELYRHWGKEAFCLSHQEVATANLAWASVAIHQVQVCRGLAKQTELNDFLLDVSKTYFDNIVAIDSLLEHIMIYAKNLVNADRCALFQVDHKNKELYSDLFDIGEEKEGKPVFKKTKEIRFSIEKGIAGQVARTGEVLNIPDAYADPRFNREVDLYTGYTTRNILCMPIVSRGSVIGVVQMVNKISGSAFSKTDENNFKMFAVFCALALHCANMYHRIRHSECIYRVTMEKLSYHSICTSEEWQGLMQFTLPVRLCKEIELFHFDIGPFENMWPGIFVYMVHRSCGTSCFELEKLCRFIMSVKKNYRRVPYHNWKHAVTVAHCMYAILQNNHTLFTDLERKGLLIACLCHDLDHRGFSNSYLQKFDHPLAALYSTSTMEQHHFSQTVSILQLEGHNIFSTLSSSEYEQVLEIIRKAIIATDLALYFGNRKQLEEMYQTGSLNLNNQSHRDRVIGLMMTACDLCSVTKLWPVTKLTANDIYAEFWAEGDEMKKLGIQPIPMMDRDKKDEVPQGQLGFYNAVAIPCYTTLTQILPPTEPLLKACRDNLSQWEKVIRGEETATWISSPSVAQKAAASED
Compound,"IC50 [1, 5] [nM]",Emax [1] [%],"Emax [2, 7] [%]",Emax [3] [%],receptor occupancy at 10 mg/kg [4] [%],"IC50 [2, 8] [nM]",IC50 ([3]; read-out: pIC50 (converted)) [nM],also measured
Cn1ccc2c(F)c(C(=O)N3[C@H]4CC[C@H](c5cc(C(F)F)nc6ncnn56)[C@@H]3CC4)ccc21,,,,,,,,melting point: 220.89 °C
Cc1cc(C(=O)N2[C@H]3CC[C@H](c4cc(C(F)F)nc5ncnn45)[C@@H]2CC3)cc(C)n1 (racemic) [Compound 31],2.51,,,,,,,"hPDE2A Emax [1]: 100; hPDE2A Emax ([1]; human recombinant PDE2A): 100; IC50 ([1]; human recombinant PDE2A, 10 μM cGMP substrate, read-out: hPDE2A pIC50 (converted)): 2.51 nM; hPDE10A2 Emax ([2]; human clone (h), default): 84; IC50 ([2]; human clone (h), default, read-out: hPDE10A2 pIC50 (converted)): 1120 nM; hPDE3B Emax [3]: 8; melting point: 190.16 °C"
C[C@H]1CCN(C(=O)c2ccc3occc3c2)C[C@@H]1c1cc(C(F)F)nc2ncnn12 [Compound 221],,,,,,,,melting point: 122.37 °C
Cc1cc2ccc(C(=O)N3[C@H]4CC[C@H](c5cc(C(F)F)nc6ncnn56)[C@@H]3CC4)cn2c1 [Compound 307],,99,97,88,8,,,"IC50 ([1]; hPDE2A pIC50): 9.12 nM; IC50 [2, 6]: 603 nM; IC50 [3]: 1480 nM"
O=C(c1ccc2ccccc2n1)N1[C@H]2CC[C@H](c3cc(C(F)F)nc4ncnn34)[C@@H]1CC2 [Compound 308],,98,66,72,18,,,"IC50 ([1]; hPDE2A pIC50): 17.4 nM; IC50 [2, 6]: 6760 nM; IC50 [3]: 4570 nM"
O=C(c1cnc2c(F)cccc2c1)N1[C@H]2CC[C@H](c3cc(C(F)F)nc4ncnn34)[C@@H]1CC2 [Compound 309],2.95,100,86,53,12,1510,7590,
O=C(c1ccc2ncccc2c1)N1[C@H]2CC[C@H](c3cc(C(F)F)nc4ncnn34)[C@@H]1CC2 [Compound 311],1.1,96,96,62,-1,427,7410,
O=C(c1ccc2ncc(F)cc2c1)N1[C@H]2CC[C@H](c3cc(C(F)F)nc4ncnn34)[C@@H]1CC2 [Compound 312],21.9,99,93,37,-16,617,> 10000,
O=C(c1cnc2ccccc2c1)N1[C@H]2CC[C@H](c3cc(C(F)F)nc4ncnn34)[C@@H]1CC2 [Compound 313],1.35,97,86,61,28,1230,6030,
O=C(c1ccc2cnccc2c1)N1[C@H]2CC[C@H](c3cc(C(F)F)nc4ncnn34)[C@@H]1CC2 [Compound 314],5.75,100,91,73,5,933,3550,
O=C(c1ccc2ccccc2c1)N1[C@H]2CC[C@H](c3cc(C(F)F)nc4ncnn34)[C@@H]1CC2 [Compound 319],1.12,100,99,95,37,263,1020,
Cc1nn(C)c2sc(C(=O)N3[C@H]4CC[C@H](c5cc(C(F)F)nc6ncnn56)[C@@H]3CC4)cc12 [Compound 335],0.955,102,98,52,88,87.1,7240,"ED50 ([4]; po, read-out: PDE Occupancy ED50): 0.985 mg/kg"
Cc1cc(Cl)cc(C(=O)N2[C@H]3CC[C@H](c4cc(C(F)F)nc5ncnn45)[C@@H]2CC3)c1 [Compound 339],6.61,101,95,69,-1,617,4790,
Cc1cc(C(=O)N2[C@H]3CC[C@H](c4cc(C(F)F)nc5ncnn45)[C@@H]2CC3)cc(C)c1F [Compound 346],5.25,100,92,68,19,724,6030,
Cc1csc(C(=O)N2[C@H]3CC[C@H](c4cc(C(F)F)nc5ncnn45)[C@@H]2CC3)c1 [Compound 347],,101,91,63,11,,,"IC50 ([1]; hPDE2A pIC50): 5.37 nM; IC50 [2, 6]: 1000 nM; IC50 [3]: 7240 nM"
O=C(c1cc(OC(F)F)cc(C2CC2)c1)N1[C@H]2CC[C@H](c3cc(C(F)F)nc4ncnn34)[C@@H]1CC2 [Compound 352],7.59,100,99,89,16,479,1820,
CN(C)c1ccc(C(=O)N2[C@H]3CC[C@H](c4cc(C(F)F)nc5ncnn45)[C@@H]2CC3)cc1 [Compound 362],1.7,99,93,88,3,794,871,
COc1ccc(C(=O)N2[C@H]3CC[C@H](c4cc(C(F)F)nc5ncnn45)[C@@H]2CC3)cc1OC [Compound 364],3.89,101,85,75,-5,1820,3160,
Cc1cc(C(=O)N2[C@H]3CC[C@H](c4cc(C(F)F)nc5ncnn45)[C@@H]2CC3)cnc1C [Compound 366],10.2,99,64,22,18,5750,> 10000,
Cc1nc2ccc(C(=O)N3[C@H]4CC[C@H](c5cc(C(F)F)nc6ncnn56)[C@@H]3CC4)cc2s1 [Compound 368],6.17,101,99,61,11,251,6460,
Cc1ccc(C(=O)N2[C@H]3CC[C@H](c4cc(C(F)F)nc5ncnn45)[C@@H]2CC3)cc1Cl [Compound 369],4.9,100,93,72,9,724,3720,
Cc1cc([C@@H]2CN(C(=O)c3cc(C4CC4)ncc3Cl)CC[C@H]2C)n2ncnc2n1 [Compound 391],2.4,99,97,81,,63.1,2240,receptor occupancy at 10 mg/kg ([4]; po): 3%
Cc1cc(C(=O)N2CC[C@@H](C)[C@H](c3cc(C(F)F)nc4ncnn34)C2)c(F)c(OC2CC2)n1 [Compound 392],1.12,99,93,97,,263,447,receptor occupancy at 10 mg/kg ([4]; po): 46%
COc1cc(C(=O)N2CC[C@@H](C)[C@H](c3cc(C(F)F)nc4ncnn34)C2)c(F)c(C)n1 [Compound 398],4.9,99,95,67,,589,5250,receptor occupancy at 10 mg/kg ([4]; po): 29%

# — patent US10947242B2, “[1,2,4]triazolo[1,5and#8208;A]pyrimidine compounds as PDE2 inhibitors” (Janssen Pharmaceutica NV, priority 2016, dated 2021)
